Test results published in ChEMBL document CHEMBL1201862, “PubChem BioAssay data set” (2004).
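Five concentrations, 48 hours, 96-well plates. At the GI50, growth is halved.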 Active and inactive are the calls of the source. No stated cut-off is given here; in the data, active = GI50 up to about 1.1 µM and inactive = higher. Residues, ends and D or L forms follow the SMILES beside them. *: point of attachment. Boc = CC(C)(C)OC(=O)*

Experiments:
Experiment in all cases: NCI tumour cell line growth inhibition, 48 h
M14 = system: M14
MDA-MB-435 = system: MDA-MB-435
SNB-75 = system: SNB-75
MDA-MB-231 = system: MDA-MB-231
A549 = system: A549
DU-145 = system: DU-145
HL-60 = system: HL-60
T47D = system: T47D
OVCAR-3 = system: OVCAR-3
OVCAR-5 = system: OVCAR-5
Malme-3M = system: Malme-3M
HOP-62 = system: HOP-62
SK-MEL-28 = system: SK-MEL-28
HCT-15 = system: HCT-15
NCI-H522 = system: NCI-H522
UACC-62 = system: UACC-62
CAKI-1 = system: CAKI-1
MOLT-4 = system: MOLT-4
IGROV-1 = system: IGROV-1
MDA-N = system: MDA-N
MCF7 = system: MCF7
HCC 2998 = system: HCC 2998
PC-3 = system: PC-3
LOX IMVI = system: LOX IMVI
TK-10 = system: TK-10
SNB-19 = system: SNB-19
ACHN = system: ACHN
SW-620 = system: SW-620
UO-31 = system: UO-31
SN12C = system: SN12C
CCRF-CEM = system: CCRF-CEM
SF-268 = system: SF-268
BT-549 = system: BT-549
HT-29 = system: HT-29
U-251 = system: U-251
OVCAR-8 = system: OVCAR-8
NCI-H460 = system: NCI-H460
786-0 = system: 786-0
SR = system: SR
OVCAR-4 = system: OVCAR-4
HCT-116 = system: HCT-116
NCI-H23 = system: NCI-H23
NCI-H226 = system: NCI-H226
RPMI-8226 = system: RPMI-8226
SK-MEL-5 = system: SK-MEL-5
UACC-257 = system: UACC-257
K562 = system: K562

Measured: GI50

COC(=O)C(Cc1c[nH]c2ccccc12)NC(=O)C(Cc1c[nH]c2ccccc12)NC(=O)C(Cc1c[nH]c2ccccc12)NC(=O)C(Cc1c[nH]c2ccccc12)NC(=O)OC(C)(C)C (configuration not stated) (Boc-WWWW-OMe; configuration not given here)
> 100 µM: HCT-15
inactive: M14 30.1 µM | MDA-MB-435 23.4 µM | SNB-75 25.5 µM | MDA-MB-231 > 100 µM | A549 39.4 µM | DU-145 43.2 µM | HL-60 6.34 µM | T47D 19.7 µM | OVCAR-3 15.1 µM | OVCAR-5 > 100 µM | Malme-3M 69.8 µM | HOP-62 25.6 µM | SK-MEL-28 18.2 µM | NCI-H522 25.4 µM | UACC-62 15.6 µM | CAKI-1 44.3 µM | MOLT-4 3.85 µM | IGROV-1 35.3 µM | MDA-N 18.5 µM | HCC 2998 20.5 µM | PC-3 19.5 µM | LOX IMVI 12.7 µM | TK-10 34.7 µM | SNB-19 31.9 µM | ACHN 57.5 µM | SW-620 6.07 µM | UO-31 89.7 µM | SN12C > 100 µM | CCRF-CEM 3.78 µM | SF-268 28.2 µM | BT-549 17.9 µM | HT-29 22.9 µM | U-251 14.4 µM | OVCAR-8 26.9 µM | NCI-H460 24.9 µM | 786-0 5.14 µM | SR 4.51 µM | OVCAR-4 48.5 µM | HCT-116 13.9 µM | NCI-H23 25.1 µM | NCI-H226 45.7 µM | RPMI-8226 3.95 µM | SK-MEL-5 34.5 µM | UACC-257 79.4 µM | K562 4.8 µM
active: MCF7 < 0.01 µM
